In patent US20020147158A1, “Composition and method for preventing and treating sinusoidal obstruction syndrome and radiation-induced liver disease” (University of Southern California, priority 2001, published 2002):
Entries after “also recorded” stand apart in the source; their conditions may differ.

Columns and labels:
[1] = system: monocrotaline-induced hepatic venoocclusive disease; assay: monocrotaline-induced rat model of SOS (hepatic venoocclusive disease), blinded histologic scoring; type: in vivo; details: for prevention of SOS (overall histologic score, FIG. 1): monocrotaline model
From the text: This FIGURE describes the effect of MMP inhibition in the in monocrotaline-induced model of SOS. Injury is rated as absent (−) or as one, two or three plus. The overall score reflects central vein (CV) endothelial damage, hemorrhage and coagulative necrosis: 2-3 points is considered mild SOS, 4-6 points is considered moderate SOS and 7-9 points is severe disease. The MMP2/MMP9 inhibitor used is 2-[(4-biphenylylsulfonyl)amino]-3-phenyl-propionic acid.
The present invention provides methods for using matrix metalloproteinase inhibitors to prevent and treat chemotherapy-induced liver disease, such as SOS and radiation-induced liver disease. These studies were done in an in vivo model of monocrotaline-induced hepatic venoocclusive disease which closely resembles the human disease.^8 Two commercially available MMP inhibitors were tested in the in vivo rat model of hepatic venoocclusive disease: doxycycline and the MMP-2/MMP-9 inhibitor, 2-[(4-biphenylsulfonyl)amino]-3-phenyl-propionic acid. Doxycycline, 15 mg/kg was given twice daily by gavage prior to onset of the disease and continued until the time of sacrifice. 2-[(4-biphenylsulfonyl)amino]-3-phenyl-propionic acid, 200 μg/hour was infused into the portal circulation until the time of sacrifice. A systematic scoring system was devised to review all the changes associated with hepatic venoocclusive disease.
The rats that were treated with the MMP inhibitors were sacrificed on day 4, which is the time-point with most severe disease in this model of hepatic venoocclusive disease when no therapeutic interventions are used. […] Both of these MMP inhibitors prevent hepatic venoocclusive disease in a dose-dependent manner, these showing that this is a class effect of MMP inhibitors and characteristic of MMP inhibition.

MMPs = details: stated in words, no test described; cited from earlier work

Row | Compound | prevention of SOS (overall histologic score, FIG. 1) ([1]; day 4) | inhibitory effect on MMPs (MMPs) | hepatic venoocclusive disease on blinded pathology scoring ([1]; day 4, 200 μg/hour infused intraportally by osmotic minipump) | protection from liver changes at lower doses ([1]; doses lower than 15 mg/kg twice daily (doxycycline) or 200 μg/hour (BPP)) | prevention of SOS (overall histologic score, FIG. 1) ([1]; day 4, listed as 2-[(4-biphenylylsulfonyl)amino]-3-phenyl-propionic acid) | prevention of SOS (overall histologic score, FIG. 1) ([1]; day 4, listed as BPP)
1 | Cc1c2c(c(O)c3c(O)cccc13)C(=O)[C@]1(O)C(=O)C(C(N)=O)=C(O)[C@@H](N(C)C)[C@@H]1C2 [anhydrotetracycline] | do not prevent SOS; also recorded: minimal protective effect | weak MMP inhibitors; also recorded: little inhibitory effect on MMPs |  |  |  | 
2 | isochlorotetracycline | do not prevent SOS; also recorded: minimal protective effect | weak MMP inhibitors; also recorded: little inhibitory effect on MMPs |  |  |  | 
3 | O=C(O)C(Cc1ccccc1)NS(=O)(=O)c1ccc(-c2ccccc2)cc1 (centres unmarked) [2-[(4-biphenylsulfonyl)amino]-3-phenyl-propionic acid] |  |  | absence of hepatic venoocclusive disease | partial protection | completely prevented | completely inhibits SOS
